Test results as given in US9187465B2, “Oxazole tyrosine kinase inhibitors” (Sareum Limited, priority 2007, dated 2015).

Assays:
human FLT4 = molecular target: T1, human FLT4 (Homo sapiens, UniProt P35916); assay: FLT4 kinase assay (DELFIA enzyme inhibition); assay type: biochemical; details: read-out: FLT4 IC50
T1 construct: a construct expressing the human FLT4 (789-1207) with an amino terminal GST tag; host or cells: Sf9 insect cells (baculovirus)
How it was run: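 Read-out is DELFIA: biotinylated MET Tyr1253-derived peptide captured on Neutravidin, phosphotyrosine detected by Eu-antibody time-resolved fluorescence. Enzyme is Sf9-expressed GST-FLT4 (789-1207), reacting 30 min at room temperature before EDTA stop. IC50 derived from plotted % inhibition.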

human Aurora A = molecular target: T2, human Aurora A (Homo sapiens, UniProt O14965); assay: Aurora A kinase assay (DELFIA enzyme inhibition); assay type: biochemical; details: read-out: Aurora A IC50
T2 construct: Histidine tag (N); host or cells: Sf9 insect cells (baculovirus)
T2 sequence (O14965 1-403): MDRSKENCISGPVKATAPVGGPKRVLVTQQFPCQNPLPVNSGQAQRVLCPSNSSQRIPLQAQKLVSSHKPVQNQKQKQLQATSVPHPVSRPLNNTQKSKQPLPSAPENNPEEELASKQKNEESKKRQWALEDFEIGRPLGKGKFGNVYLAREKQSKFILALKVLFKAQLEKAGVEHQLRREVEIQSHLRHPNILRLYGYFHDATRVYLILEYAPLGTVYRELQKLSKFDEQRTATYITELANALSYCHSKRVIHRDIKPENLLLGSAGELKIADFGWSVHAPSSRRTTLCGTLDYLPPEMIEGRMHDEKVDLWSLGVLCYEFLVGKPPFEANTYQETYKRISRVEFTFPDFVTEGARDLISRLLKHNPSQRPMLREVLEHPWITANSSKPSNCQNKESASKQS
Method: The protein was purified by one-step affinity chromatography using nickel-agarose […]
Assay reactions are set up in a 25 uL final volume on a 96 well plate. […] The reaction is allowed to proceed for 30 minutes at room temperature before stopping with 100 μL Stop solution comprising of 100 mM EDTA, 1×BSA blocker in TBS (Perbio) and 0.05% Surfact-Amps20 (Perbio).
The stopped reaction is transferred to a black 96-well Neutravidin-coated plate (Perbio) and incubated for 30 minutes to capture the biotinylated peptide substrate. […] After repeating the washing step, the plate is further incubated for one hour with Europium-labelled anti-rabbit antibody (Perkin Elmer AD0105). The wash step is repeated for a final time before DELFIA Enhancement solution (Perkin Elmer) is added to all wells for 5 minutes and the fluorescence measured on a plate reader Analyst HT (Molecular Devices).

T1 sequence (P35916 789-1207): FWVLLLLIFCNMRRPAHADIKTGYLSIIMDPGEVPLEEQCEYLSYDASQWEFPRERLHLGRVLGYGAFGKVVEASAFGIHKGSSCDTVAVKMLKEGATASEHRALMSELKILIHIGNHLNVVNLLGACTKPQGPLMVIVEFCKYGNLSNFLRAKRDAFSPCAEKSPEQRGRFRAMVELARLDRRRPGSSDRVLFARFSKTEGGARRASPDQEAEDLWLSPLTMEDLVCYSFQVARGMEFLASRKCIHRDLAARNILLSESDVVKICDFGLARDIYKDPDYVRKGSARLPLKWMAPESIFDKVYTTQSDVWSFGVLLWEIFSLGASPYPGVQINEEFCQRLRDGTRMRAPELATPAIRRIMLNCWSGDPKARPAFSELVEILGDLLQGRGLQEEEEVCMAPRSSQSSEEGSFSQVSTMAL

Compound	IC50 (human FLT4)	IC50 (human Aurora A)
NC(=O)c1nc(-c2c(F)cccc2F)oc1-c1ccc(OCC2CNCCO2)cc1 (centres unmarked) [Example S-15, 2-(2,6-difluorophenyl)-5-(4-(morpholin-2-ylmethoxy)phenyl)oxazole-4-carboxamide]	< 10 µM	< 10 µM
COc1ccc(-c2nc(-c3c(F)cccc3F)[nH]c2C(N)=O)cc1 [Example B-5, 2-(2,6-difluorophenyl)-4-(4-methoxyphenyl)-1H-imidazole-5-carboxamide]	< 100 µM	< 100 µM
COc1ccc(Nc2oc(-c3c(F)cccc3F)nc2C(N)=O)cc1OC [Example Q-39, 2-(2,6-difluorophenyl)-5-(3,4-dimethoxyphenylamino)oxazole-4-carboxamide]	< 10 µM	< 100 µM
NC(=O)c1nc(-c2c(F)cccc2F)oc1Nc1ccc(C2CCNCC2)cc1 [Example Q-46, 2-(2,6-difluorophenyl)-5-(4-(piperidin-4-yl)phenylamino)oxazole-4-carboxamide]	< 10 µM	< 10 µM
CN(C)CCNc1ccc(-c2oc(-c3c(F)cccc3F)nc2C(N)=O)cc1 [Example F-33, 2-(2,6-difluorophenyl)-5-(4-(2-(dimethylamino)ethylamino)phenyl)oxazole-4-carboxamide]	< 10 µM	< 10 µM
CS(=O)(=O)c1cccc(Nc2oc(-c3c(F)cccc3F)nc2C(N)=O)c1 [Example Q-4, 2-(2,6-difluorophenyl)-5-(3-(methylsulfonyl)phenylamino)oxazole-4-carboxamide]	< 10 µM	< 10 µM
CNCCCNC(=O)c1ccc(Nc2oc(-c3c(F)cccc3F)nc2C(N)=O)cc1 [Example U-4, 5-(4-((3-(methylamino)propyl)carbamoyl)phenylamino)-2-(2,6-difluorophenyl) oxazole-4-carboxamide]	< 10 µM	< 10 µM
COc1ccc(-c2nc(-c3csc4ccccc34)[nH]c2C(N)=O)cc1 [Example B-3, 2-(benzo[b]thiophen-3-yl)-4-(4-methoxyphenyl)-1H-imidazole-5-carboxamide]	< 100 µM	< 100 µM
COc1cccc(Nc2oc(-c3c(F)cccc3F)nc2C(N)=O)c1 [Example Q-6, 2-(2,6-difluorophenyl)-5-(3-methoxyphenylamino)oxazole-4-carboxamide]	< 100 µM	< 100 µM
NC(=O)c1nc(-c2c(F)cccc2F)oc1Nc1ccc(C(=O)N2CCOCC2)cc1 [Example U-2, 2-(2,6-difluorophenyl)-5-(4-(morpholine-4-carbonyl)phenylamino)oxazole-4-carboxamide]	< 10 µM	< 10 µM
NC(=O)c1nc(-c2c(F)cccc2F)oc1Nc1ccccc1 [Example O-1, 2-(2,6-difluorophenyl)-5-(phenylamino)oxazole-4-carboxamide]	< 10 µM	< 10 µM
NC(=O)c1ccc(-c2oc(-c3c(F)cccc3F)nc2C(N)=O)cc1 [Example F-17, 5-(4-carbamoylphenyl)-2-(2,6-difluorophenyl)oxazole-4-carboxamide]	< 10 µM	< 10 µM
CS(=O)(=O)c1ccc(Nc2oc(-c3c(F)cccc3F)nc2C(N)=O)c(F)c1 [Example Q-43, 2-(2,6-difluorophenyl)-5-(2-fluoro-4-(methylsulfonyl)phenylamino)oxazole-4-carboxamide]	< 10 µM	< 100 µM
NC(=O)c1nc(-c2c(F)cccc2F)oc1Nc1ccc(C(=O)NCC2CCNCC2)cc1 [Example Q-50, 5-(4-((piperidin-4-ylmethyl)carbamoyl)phenylamino)-2-(2,6-difluorophenyl)oxazole-4-carboxamide]	< 10 µM	< 10 µM
COc1ccccc1Nc1oc(-c2c(F)cccc2F)nc1C(N)=O [Example Q-5, 2-(2,6-difluorophenyl)-5-(2-methoxyphenylamino)oxazole-4-carboxamide]	< 10 µM	< 100 µM
CN(C)c1ccc(-c2oc(-c3c(F)cccc3F)nc2C(N)=O)cc1 [Example F-3, 2-(2,6-difluorophenyl)-5-(4-(dimethylamino)phenyl)oxazole-4-carboxamide]	< 10 µM	< 100 µM

Compound	IC50 (human FLT4)	IC50 (human Aurora A)
NC(=O)c1[nH]c(-c2c(F)cccc2F)nc1-c1ccccn1 [Example C-1, 2-(2,6-difluorophenyl)-4-(pyridin-2-yl)-1H-imidazole-5-carboxamide]	< 100 µM	< 100 µM
NC(=O)c1nc(-c2c(F)cccc2F)oc1Nc1ccc(C(=O)N[C@H]2CCNC2)cc1 [Example U-7, (S)-2-(2,6-difluorophenyl)-5-(4-(pyrrolidin-3-ylcarbamoyl)phenylamino)oxazole-4-carboxamide]	< 10 µM	< 10 µM
COc1ccc(-c2oc(-c3cccc(C)c3)nc2C(N)=O)cc1 [Example N-10, 5-(4-methoxyphenyl)-2-m-tolyloxazole-4-carboxamide]	< 100 µM	< 100 µM
COc1ccc(-c2nc(-c3ccccc3F)[nH]c2C(N)=O)cc1 [Example A-11, 2-(2-fluorophenyl)-4-(4-methoxyphenyl)-1H-imidazole-5-carboxamide]	< 100 µM	< 100 µM
NC(=O)c1nc(-c2c(F)cccc2F)oc1Nc1ccc(OC(F)(F)F)cc1 [Example Q-42, 2-(2,6-difluorophenyl)-5-(4-(trifluoromethoxy)phenylamino)oxazole-4-carboxamide]	< 10 µM	< 100 µM
NC(=O)c1nc(-c2ccnc3[nH]ccc23)oc1-c1ccc(N2CCNCC2)cc1 [Example M-18, 5-(4-(piperazin-1-yl)phenyl)-2-(1H-pyrrolo[2,3-b]pyridin-4-yl)oxazole-4-carboxamide]	< 10 µM	< 10 µM
COc1ccc(Nc2nc(C(N)=O)c(-c3ccc(OC)cc3)o2)cc1 [Example R-4, 5-(4-methoxyphenyl)-2-(4-methoxyphenylamino)oxazole-4-carboxamide]	< 10 µM	< 100 µM
NC(=O)c1[nH]c(-c2c(F)cccc2F)nc1-c1cccs1 [Example A-16, 2-(2,6-difluorophenyl)-4-(thiophen-2-yl)-1H-imidazole-5-carboxamide]	< 10 µM	< 100 µM
COc1ccc(-c2nc(-c3c(F)cccc3Cl)[nH]c2C(N)=O)cc1 [Example A-15, 2-(2-chloro-6-fluorophenyl)-4-(4-methoxyphenyl)-1H-imidazole-5-carboxamide]	< 100 µM	< 100 µM
NC(=O)c1nc(-c2c(F)cccc2F)oc1Nc1ccc(N2CCC(N)CC2)cc1 [Example Q-17, 5-(4-(4-aminopiperidin-1-yl)phenylamino)-2-(2,6-difluorophenyl)oxazole-4-carboxamide]	< 10 µM	< 10 µM
COc1ccc(-c2nc(-c3c(F)cc(Br)cc3F)[nH]c2C(N)=O)cc1 [Example A-14, 2-(4-bromo-2,6-difluorophenyl)-4-(4-methoxyphenyl)-1H-imidazole-5-carboxamide]	< 100 µM	< 100 µM
COc1ccc(-c2nc(-c3ccccc3Cl)[nH]c2C(N)=O)cc1 [Example A-2, 2-(2-chlorophenyl)-4-(4-methoxyphenyl)-1H-imidazole-5-carboxamide]	< 100 µM	< 100 µM
COc1ccc(-c2oc(-c3cc[nH]n3)nc2C(N)=O)cc1 [Example N-1, 5-(4-methoxyphenyl)-2-(1H-pyrazol-5-yl)oxazole-4-carboxamide]	< 10 µM	< 10 µM
CNCCOc1ccc(-c2oc(-c3c(F)cccc3F)nc2C(N)=O)cc1 [Example S-20, 2-(2,6-difluorophenyl)-5-(4-(2-(methylamino)ethoxy)phenyl)oxazole-4-carboxamide]	< 10 µM	< 10 µM
NC(=O)c1nc(-c2c(F)cccc2F)oc1Nc1ccc(C(=O)N[C@H]2CCCNC2)cc1 [Example Q-54, (S)-2-(2,6-difluorophenyl)-5-(4-(piperidin-3-ylcarbamoyl)phenylamino)oxazole-4-carboxamide]	< 10 µM	< 10 µM
